ChEMBL document CHEMBL4024732, “Discovery of a novel and potent class of anti-HIV-1 maturation inhibitors with improved virology profile against gag polymorphisms” (Bioorg Med Chem Lett, 2017)
Activity calls are given as the source filed them. The calls are words filed in the database; no cut-off is given here.

Assays:
[1] = Inhibition of wild type HIV-1 clade B NL4-3 Gag polyprotein SP1 infected in human MT4 cells; assay type: cell-based; settings: Human immunodeficiency virus 1, clade B NL4-3, MT4
[2] = Inhibition of bevirimat-resistant HIV1 clade B NL4-3 CA-SP1 V370A mutant infected in human MT4 cells; assay type: cell-based; settings: Human immunodeficiency virus 1, clade B NL4-3, MT4
[3] = Inhibition of bevirimat-resistant HIV1 clade B NL4-3 CA-SP1 Q369H mutant infected in human MT4 cells; assay type: cell-based; settings: Human immunodeficiency virus 1, clade B NL4-3, MT4
[4] = Inhibition of bevirimat-resistant HIV1 clade B NL4-3 CA-SP1 T371A mutant infected in human MT4 cells; assay type: cell-based; settings: Human immunodeficiency virus 1, clade B NL4-3, MT4
[5] = system: Human immunodeficiency virus 1; assay: Antiviral activity against HIV1 isolate 96THNP1538 infected in human PBMC; assay type: functional; settings: Human immunodeficiency virus 1, isolate 96THNP1538
[6] = Inhibition of bevirimat-resistant HIV-1 clade B isolate CC1/85 CA-SP1 V370A mutant infected in human PBMC measured after 7 days by scintillation counting method; settings: Human immunodeficiency virus 1, clade B isolate CC1/85, 168 h
[7] = Cytotoxicity against human MT4 cells; assay type: cell-based
[8] = system: Human immunodeficiency virus 1; assay: Antiviral activity against HIV1 isolate 01ET188 infected in human PBMC; assay type: functional; settings: Human immunodeficiency virus 1, isolate 01ET188
[9] = Inhibition of bevirimat-resistant HIV-1 clade A isolate I-2496 V370A mutant infected in human PBMC after 7 days by scintillation counting method; settings: Human immunodeficiency virus 1, clade A isolate I-2496, 168 h
[10] = system: Human immunodeficiency virus 1; assay: Antiviral activity against HIV1 isolate 96USNG031 infected in human PBMC; assay type: functional; settings: Human immunodeficiency virus 1, isolate 96USNG031
[11] = system: Human immunodeficiency virus 1; assay: Ratio of compound effect in presence of 40% human serum to compound effect in absence of serum for antiviral activity against HIV1 by cell based assay; assay type: functional
[12] = Inhibition of bevirimat-resistant HIV-1 clade B isolate ASJM108 Gag V370A mutant infected in human PBMC after 7 days by scintillation counting method; settings: Human immunodeficiency virus 1, clade B isolate ASJM108, 168 h
[13] = system: Human immunodeficiency virus 1; assay: Antiviral activity against HIV1 isolate 00KEKR1008 infected in human PBMC; assay type: functional; settings: Human immunodeficiency virus 1, isolate 00KEKR1008
[14] = system: Human immunodeficiency virus 1; assay: Antiviral activity against HIV1 isolate 91BR014 infected in human PBMC; assay type: functional; settings: Human immunodeficiency virus 1, isolate 91BR014
[15] = system: Human immunodeficiency virus 1; assay: Inhibition of HIV1 Gag CA-SP1 cleavage infected in human PBMC at 0.0001 to 10 uM measured after 8 days post infection by Western blot analysis
[16] = system: Human immunodeficiency virus 1; assay: Inhibition of HIV1 Gag CA-SP1 cleavage infected in human PBMC at 10 uM measured after 8 days post infection by Western blot analysis

Row | SMILES | IC50 [1] [µM] | IC50 [2] [µM] | IC50 [3] [µM] | IC50 [4] [µM] | further results
1 | CC(C)C1=C2[C@H]3CC[C@@H]4[C@@]5(C)CC[C@H](OC(=O)CC(C)(C)C(=O)O)C(C)(C)[C@@H]5CC[C@@]4(C)[C@]3(C)CC[C@@]2(C(=O)C(=O)NCc2c(Cl)cccc2Cl)CC1=O | 0.085 | 1.07 |  |  | 
2 | CC[C@H](NC(=O)C(=O)[C@@]12CC[C@]3(C)[C@H](CC[C@@H]4[C@@]5(C)CC[C@H](OC(=O)CC(C)(C)C(=O)O)C(C)(C)[C@@H]5CC[C@]43C)C1=C(C(C)C)C(=O)C2)c1ccc(Cl)cc1 | 0.054 | 0.372 | 0.062 | 0.026 | 
3 | CC(C)C1=C2[C@H]3CC[C@@H]4[C@@]5(C)CC[C@H](OC(=O)CC(C)(C)C(=O)O)C(C)(C)[C@@H]5CC[C@@]4(C)[C@]3(C)CC[C@@]2(C(=O)C(=O)N[C@@H](C)c2ccc(Cl)cc2)CC1=O | 0.039 | 0.474 | 0.06 | 0.019 | 
4 | CC(C)C1=C2[C@H]3CC[C@@H]4[C@@]5(C)CC[C@H](OC(=O)CC(C)(C)C(=O)O)C(C)(C)[C@@H]5CC[C@@]4(C)[C@]3(C)CC[C@@]2(C(=O)C(=O)NCc2cccs2)CC1=O | 0.021 | 1.62 |  |  | 
5 | CNC(=O)C(=O)[C@@]12CC[C@]3(C)[C@H](CC[C@@H]4[C@@]5(C)CC[C@H](OC(=O)CC(C)(C)C(=O)O)C(C)(C)[C@@H]5CC[C@]43C)C1=C(C(C)C)C(=O)C2 | 1.32 | 6.67 |  |  | 
6 | CC(C)C1=C2[C@H]3CC[C@@H]4[C@@]5(C)CC[C@H](OC(=O)CC(C)(C)C(=O)O)C(C)(C)[C@@H]5CC[C@@]4(C)[C@]3(C)CC[C@@]2(C(=O)C(=O)NC2(c3ccc(Cl)cc3)CCCC2)CC1=O | 0.066 | 0.11 | 0.1 | 0.033 | 
7 | CC(C)C1=C2[C@H]3CC[C@@H]4[C@@]5(C)CC[C@H](OC(=O)CC(C)(C)C(=O)O)C(C)(C)[C@@H]5CC[C@@]4(C)[C@]3(C)CC[C@@]2(C(=O)C(=O)NC2(c3ccc(Cl)cc3)CC2)CC1=O | 0.017 | 0.025 | 0.023 | 0.008 | IC50 [5]: > 0.06 µM; IC50 [6]: 0.005 µM; CC50 [7]: > 10 µM; IC50 [8]: > 0.06 µM; IC50 [9]: 0.014 µM; IC50 [10]: > 0.06 µM; Ratio [11]: 9.7; IC50 [12]: 0.051 µM; IC50 [13]: > 0.06 µM; IC50 [14]: > 0.06 µM; inhibition [15]: Active
8 | CC(C)C1=C2[C@H]3CC[C@@H]4[C@@]5(C)CC[C@H](OC(=O)CC(C)(C)C(=O)O)C(C)(C)[C@@H]5CC[C@@]4(C)[C@]3(C)CC[C@@]2(C(=O)C(=O)NC2(c3ccc(Cl)cc3)CCC2)CC1=O | 0.029 | 0.065 | 0.048 | 0.017 | 
9 | CC(C)C1=C2[C@H]3CC[C@@H]4[C@@]5(C)CC[C@H](OC(=O)CC(C)(C)C(=O)O)C(C)(C)[C@@H]5CC[C@@]4(C)[C@]3(C)CC[C@@]2(C(=O)C(=O)NC(C)(C)c2ccc(Cl)cc2)CC1=O | 0.019 | 0.017 | 0.017 | 0.011 | 
10 | COc1ccc(CNC(=O)C(=O)[C@@]23CC[C@]4(C)[C@H](CC[C@@H]5[C@@]6(C)CC[C@H](OC(=O)CC(C)(C)C(=O)O)C(C)(C)[C@@H]6CC[C@]54C)C2=C(C(C)C)C(=O)C3)cc1 | 0.099 | 8 |  |  | 
11 | CC(C)C1=C2[C@H]3CC[C@@H]4[C@@]5(C)CC[C@H](OC(=O)CC(C)(C)C(=O)O)C(C)(C)[C@@H]5CC[C@@]4(C)[C@]3(C)CC[C@@]2(C(=O)C(=O)Nc2ccc(F)cc2)CC1=O | 0.13 | 1.8 |  |  | 
12 | CC(C)C1=C2[C@H]3CC[C@@H]4[C@@]5(C)CC[C@H](OC(=O)CC(C)(C)C(=O)O)C(C)(C)[C@@H]5CC[C@@]4(C)[C@]3(C)CC[C@@]2(C(=O)C(=O)NCc2ccncc2)CC1=O | 6.2 | > 10 |  |  | 
13 | C=C(C)[C@@H]1CC[C@]2(C(=O)O)CC[C@]3(C)[C@H](CC[C@@H]4[C@@]5(C)CC[C@H](OC(=O)CC(C)(C)C(=O)O)C(C)(C)[C@@H]5CC[C@]43C)[C@@H]12 [BEVIRIMAT] | 0.27 | 6.51 | 0.383 | 0.252 | IC50 [6]: > 10 µM; IC50 [9]: > 4 µM; Ratio [11]: 52; IC50 [12]: > 10 µM; inhibition [16]: Active
14 | CC(C)C1=C2[C@H]3CC[C@@H]4[C@@]5(C)CC[C@H](OC(=O)CC(C)(C)C(=O)O)C(C)(C)[C@@H]5CC[C@@]4(C)[C@]3(C)CC[C@@]2(C(=O)C(=O)NCc2ccccc2Cl)CC1=O | 0.017 | 0.486 |  |  | 
